Test results taken from PubChem BioAssay AID1963850 (Molecular Pharmacology Branch, DTP, NCI, 2024).

System: 192522-019-R-J2-PDC complex tumor spheroid viability
Test: Anticancer human tumor 192522-019-R-J2-PDC patient-derived colon adenocarcinoma cell line growth inhibition [POLQ]
Settings: for IC50: curve of first compound; for viability, T/C: stronger effect = lower value
Procedure, shortened: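 Growth inhibition in 3D: complex spheroids (tumor PDC, HUVEC, MSC) treated with POLQ inhibitor combinations; where Cmax unknown, highest tested concentration 10 microM, except SN-38 at 1 microM.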

[1] = second compound 0.0316 µM, first compound 0.0316 µM
[2] = second compound 0.0316 µM, first compound 0.1 µM
[3] = second compound 0.0316 µM, first compound 0.316 µM
[4] = second compound 0.0316 µM, first compound 1 µM
[5] = second compound 0.1 µM, first compound 0.0316 µM
[6] = second compound 0.1 µM, first compound 0.1 µM
[7] = second compound 0.1 µM, first compound 0.316 µM
[8] = second compound 0.1 µM, first compound 1 µM
[9] = second compound 0.316 µM, first compound 0.0316 µM
[10] = second compound 0.316 µM, first compound 0.1 µM
[11] = second compound 0.316 µM, first compound 0.316 µM
[12] = second compound 0.316 µM, first compound 1 µM
[13] = second compound 1 µM, first compound 0.0316 µM
[14] = second compound 1 µM, first compound 0.1 µM
[15] = second compound 1 µM, first compound 0.316 µM
[16] = second compound 1 µM, first compound 1 µM
[17] = second compound 3.16 µM, first compound 0.0316 µM
[18] = second compound 3.16 µM, first compound 0.1 µM
[19] = second compound 3.16 µM, first compound 0.316 µM
[20] = second compound 3.16 µM, first compound 1 µM
[21] = second compound 10 µM, first compound 0.0316 µM
[22] = second compound 10 µM, first compound 0.1 µM
[23] = second compound 10 µM, first compound 0.316 µM
[24] = second compound 10 µM, first compound 1 µM
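Note: spheroids exposed to drugs for seven days before reading.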
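Throughout, for viability, T/C: 100% = DMSO vehicle control viability in luminescence.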

In the case of CC1COCCN1c1cc(C2(O)CC3CCC(C2)O3)c2cnn(-c3ccn[nH]3)c2n1 (centres undefined) + COC1C(OC(N)=O)C(O)C(Oc2ccc3c(O)c(NC(=O)c4ccc(O)c(CC=C(C)C)c4)c(=O)oc3c2C)OC1(C)C, the IC50 (second compound 0.0316 µM) is reported as 227 nM, the IC50 (second compound 0.1 µM) is reported as 242 nM and the IC50 (second compound 0.316 µM) is reported as 314 nM. The IC50 (second compound 1 µM) was 254 nM, the IC50 (second compound 3.16 µM) was 239 nM and the IC50 (second compound 10 µM) was 247 nM. The viability, T/C [1] was 95.5%, the viability, T/C [2] was 70.3% and the viability, T/C [3] was 41.9%. For the same molecule, the viability, T/C [4] was 33.7%, the viability, T/C (second compound 0.0316 µM, first compound 3.16 µM) was 42.8% and the viability, T/C (second compound 0.0316 µM, first compound 10 µM) was 46.5%. For the same molecule, the viability, T/C [5] was 102%, the viability, T/C [6] was 81.8% and the viability, T/C [7] was 39.8%. It also gave a viability, T/C [8] of 33%, a viability, T/C (second compound 0.1 µM, first compound 3.16 µM) of 41.6% and a viability, T/C (second compound 0.1 µM, first compound 10 µM) of 47%. The viability, T/C [9] was 101%, the viability, T/C [10] was 83.4% and the viability, T/C [11] was 50.8%. The viability, T/C [12] was 36.9%, the viability, T/C (second compound 0.316 µM, first compound 3.16 µM) was 40.7% and the viability, T/C (second compound 0.316 µM, first compound 10 µM) was 48.5%. The viability, T/C [13] was 96.3%, the viability, T/C [14] was 73.5% and the viability, T/C [15] was 45%. The viability, T/C [16] was 33.5%, the viability, T/C (second compound 1 µM, first compound 3.16 µM) was 41.7% and the viability, T/C (second compound 1 µM, first compound 10 µM) was 53.1%. It also gave a viability, T/C [17] of 94%, a viability, T/C [18] of 77.4% and a viability, T/C [19] of 39.8%. For the same molecule, the viability, T/C [20] was 34.4%, the viability, T/C (second compound 3.16 µM, first compound 3.16 µM) was 41.3% and the viability, T/C (second compound 3.16 µM, first compound 10 µM) was 49.1%. For the same molecule, the viability, T/C [21] was 93.1%, the viability, T/C [22] was 70.8% and the viability, T/C [23] was 42.1%. It also gave a viability, T/C [24] of 38.5%, a viability, T/C (second compound 10 µM, first compound 3.16 µM) of 45.9% and a viability, T/C (second compound 10 µM, first compound 10 µM) of 51%.

COc1cccc(OCCCN)c1-c1cc(Nc2cnc(C#N)cn2)n[nH]1 + COC1C(OC(N)=O)C(O)C(Oc2ccc3c(O)c(NC(=O)c4ccc(O)c(CC=C(C)C)c4)c(=O)oc3c2C)OC1(C)C gave an IC50 (second compound 0.0316 µM) of 14.3 nM, an IC50 (second compound 0.1 µM) of 15.7 nM and an IC50 (second compound 0.316 µM) of 15.8 nM. It also gave an IC50 (second compound 1 µM) of 16.6 nM, an IC50 (second compound 3.16 µM) of 18.6 nM and an IC50 (second compound 10 µM) of 18.9 nM. For the same molecule, the viability, T/C (second compound 0.0316 µM, first compound 0.00316 µM) was 96%, the viability, T/C (second compound 0.0316 µM, first compound 0.01 µM) was 55.5% and the viability, T/C [1] was 38%. The viability, T/C [2] was 30.8%, the viability, T/C [3] was 30.7% and the viability, T/C [4] was 30.5%. It also gave a viability, T/C (second compound 0.1 µM, first compound 0.00316 µM) of 94.7%, a viability, T/C (second compound 0.1 µM, first compound 0.01 µM) of 58.7% and a viability, T/C [5] of 35.3%. It also gave a viability, T/C [6] of 35%, a viability, T/C [7] of 28.9% and a viability, T/C [8] of 28.2%. For the same molecule, the viability, T/C (second compound 0.316 µM, first compound 0.00316 µM) was 90%, the viability, T/C (second compound 0.316 µM, first compound 0.01 µM) was 60.6% and the viability, T/C [9] was 33.6%. It also gave a viability, T/C [10] of 31.8%, a viability, T/C [11] of 27.2% and a viability, T/C [12] of 29.9%. It also gave a viability, T/C (second compound 1 µM, first compound 0.00316 µM) of 84.8%, a viability, T/C (second compound 1 µM, first compound 0.01 µM) of 61.8% and a viability, T/C [13] of 35.2%. It also gave a viability, T/C [14] of 30.1%, a viability, T/C [15] of 30.9% and a viability, T/C [16] of 30.5%. The viability, T/C (second compound 3.16 µM, first compound 0.00316 µM) was 87.6%, the viability, T/C (second compound 3.16 µM, first compound 0.01 µM) was 69.5% and the viability, T/C [17] was 33.3%. For the same molecule, the viability, T/C [18] was 28.9%, the viability, T/C [19] was 35.6% and the viability, T/C [20] was 32.1%. It also gave a viability, T/C (second compound 10 µM, first compound 0.00316 µM) of 89.7%, a viability, T/C (second compound 10 µM, first compound 0.01 µM) of 64.6% and a viability, T/C [21] of 38.4%. It also gave a viability, T/C [22] of 32%, a viability, T/C [23] of 32.5% and a viability, T/C [24] of 34%.
